Patent US20150351390A1, “COMPOSITIONS AND METHODS FOR AUXIN-ANALOG CONJUGATION” (PIONEER HI-BRED INTERNATIONAL, INC., priority 2012, published 2015)

Assays:
soybean seedlings = test: Soybean seedling response to spot infiltrated auxins and conjugates; on 1st trifoliate leaf curl: key: 0 = no phenotype; +/− = threshold; on Chlorotic lesion @ app. Pnt: key: 0 = no phenotype; +/− = threshold; type: in vivo; set-up: 1st trifoliate leaf curl / Epinasty score: key: 0 = no phenotype; +/− = threshold; settings: for 1st trifoliate leaf curl / Chlorotic lesion @ app. Pnt / Epinasty score: spot infiltration; for Plant response phenotype, soybean: result in words
Procedure: Conjugate forms of auxinic compounds when applied through spot infiltration, a needleless method to introduce exogenous agents into plant cells. Initially, various concentrations of analytical grade (98%+pure) IAA, 2,4-D, and dicamba were prepared as solutions that were applied directly to uni-foliate leaves of 9 day old soybean seedlings by spot infiltration in order to determine the range of auxinic response and severity.
Spot infiltration comprises applying a compound to be tested in composition that is applied to the surface of a plant, for example, to a leaf or other plant structure. For example, a method for testing a plant response to one or more compounds using spot infiltration comprises a) providing a composition comprising one or more compounds to be tested in a container having at least an opening for the compound enter and/or exit, and one or more elements for moving the composition into or out of the container; b) contacting at least one opening of the container with the surface of a plant and moving the composition comprising one or more compounds to at least the surface of the plant. A container and elements for moving the composition may comprise a syringe body and plunger. Moving the composition to the plant surface comprises contacting the surface with pressure sufficient for the composition to enter the cells of the plant. In an aspect, spot filtration testing comprises measuring an effect of the composition on the contacted plant and comparing that measure or effect to a plant that is not contacted with the composition.
Plant response phenotypes were documented at one day post-spot infiltration and subsequently every other day, up to nine days post treatment. […] In the studies described herein below, 5 replicate treatments for each conjugate form were conducted, along with appropriate negative controls.
(§1) Examples 9 and 10 utilized a spot infiltration method for the delivery of an herbicide directly to leaves of a plant. The method generally allows for the directed delivery of a variety of agents to a localized area of a plant, e.g. localized region of leaves, for screening or assessment purposes, e.g. to quickly assess the response of a plant to the agent. As used in the foregoing examples, the spot infiltration method was used to introduce specific herbicides or specific conjugates of the herbicides to seedling plant leaves. Following introduction of the herbicide or the appropriate conjugate, plants were observed daily for nine days for characteristics of epinasty, trifoliate leaf curly, chlorosis, and new growth recovery.
(§2) Briefly, a solution of the desired agent is prepared of the desired agent, e.g. as described above in Example 10, solutions (5% EtOH) of 1, 2.5 and 5 mM IAA. The solution is then drawn into a 1 mL BD™ slip-tip syringe, bulk, non-sterile syringe (e.g. Becton, Dickinson and Company, Product No. 301025) with 100 μL markings. The desired volume is then applied to the leaf, e.g. as described in Examples 9 and 10, with the tip of the syring against the leaf and positive pressure applied to the syringe plunger. Sufficient pressure is applied in order to infuse the area beneath the syringe opening, but not so much pressure as to cause a visible-to-the-eye puncture or hole to form in the leaf. Some run-off of solution around the syringe opening is expected. In the foregoing examples, two spots were applied to each of two leaves per seedling for soybean plants. […] In soybean, both spots per leaf were at the distal portion of the leaf about 1-2 cm apart. When the method was applied to Arabidopsis, two developmentally intermediate aged leaves were chosen per plant, and one spot infiltration was carried out per leaf.

[1] = tested on: Arabidopsis ecotype Col-0 plant; test: Arabidopsis response to spot infiltrated auxins and conjugates; type: in vivo, Arabidopsis thaliana; settings: result in words
Procedure: The effect of auxin conjugates was assessed using Arabidoposis (Arabidopsis thialiana) ecotype Col-0 plant. Prior to studies utilizing the auxin conjugates, levels of analytical grade (98%+pure) IAA, 2,4-D and dicamba in solution were applied at various concentrations directly to developmentally similar leaves of 20-23 day old Arabidopsis seedlings by needleless syringe spot infiltration methodology, in order to determine range of auxinic response and severity. Phenotypes were documented relative to control at 1 day post-spot infiltration and subsequently every other day, up to nine days post treatment. Three concentrations were chosen based on reproducibility, and conjugated forms were then studied with 4 or more replicate treatments for each, along with appropriate negative controls (H2O and 10% EtOH).
as §1, §2
Generally, for Arabidopsis, the two leaves were chosen from opposite sides of rosette. In general, the spot infiltration method is carried out on younger plants in order to minimize experimental footprint and to maintain developmental uniformity. However, the method is not limited to use on young plants and can be easily applied to older plants as determined by the goals of a particular experiment.

Soybean seeds = test: Phytotoxicity evaluation during soybean germination; type: in vivo; settings: 1 μM in germination media, 10 days
Procedure: To evaluate the effect of synthetic auxin conjugates in plants, 2,4-D-Asp, 2,4-D-Glu, dicamba-Asp, and dicamba-Glu were synthesized (Irvine Chemistry Laboratory, Anaheim, Calif.) and tested for auxin effects during soybean germination.
Asp and Glu conjugates of 2,4-D and dicamba were dissolved in a small quantity of Na2CO3 and ethanol, respectively, diluted in ddH2O to obtain 10 mM stock solution, and filter sterilized. Soybean seeds of a Pioneer elite germplasm were sterilized with chlorine gas as following: a) two layers of seeds were placed in a 100×25 mm plastic Petri dish; b) in an exhaust fume hood, seeds were placed into a glass desiccator with a 250 mL beaker containing 100 mL bleach (5% NaOC1) and 3.5 mL 12N HCl was slowly added to the beaker; c) the lid was sealed closed on the desiccator and the seeds sterilized for at least 24 hr.
Sterilized soybean seeds were then imbibed in ddH2O under sterile conditions at 25° C. for 24 hours before germination test. For germination test, 6-8 imbibed seeds were placed on a 100×25 mm deep Petri dish plate containing 50 ml germination media supplemented with or without auxin herbicide conjugates. 1 L seed germination media contains 3.21 g GAMBORG B-5 basal medium (PhytoTech), 20 g sucrose, 5 g tissue culture agar, and is pH adjusted to 5.7. Media was autoclaved at 121° C. for 25 min and cooled to 60° C. before the addition of auxin conjugates. Germination was carried out in a Percival growth chamber at 25° C. under 18 hr light and 6 hr dark cycle at 90 to 150 μE/m2/s and grown for 10 days.

[2] = LC-MS assay of GH3 conjugation of 2,4-D with Asp or Glu; type: biochemical; settings: LC-MS
In short: (§3)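 N-His-tagged GH3 homologs expressed in E. coli C41(DE3) and Ni-NTA purified (44 to 164 μg/mL) were incubated 3 hours at 30° C. in 20 mM Tris-HCl pH 8.0, 5 mM MgCl2, 1 mM DTT with 5 mM each of auxin, ATP and Asp or Glu. Conjugates were quantified by LC-MS against standards.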

[3] = LC-MS assay of GH3 conjugation of IAA with Asp or Glu; type: biochemical; settings: LC-MS
In short: as §3

[4] = LC-MS assay of GH3 conjugation of dicamba with Asp or Glu; type: biochemical; settings: LC-MS
In short: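 Dicamba–amino acid (Asp or Glu) conjugates formed by purified his-tagged GH3 enzymes were detected by LC-MS on an AB Sciex 4000 QTrap with Shimadzu Nexera UHPLC and a Phenomenex Luna 3 μm Phenyl-Hexyl column, after 20× dilution of the supernatant in water. Standards were used to quantify conjugates. Protein concentration was determined by Bradford assay.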

[5] = 1, 2.5 and 5 mM, all test levels

## O=C(O)Cc1c[nH]c2ccccc12 [IAA, indole-3-acetic acid]
Soybean seedlings; 1.0 mM
  1st trifoliate leaf curl: 0
  Chlorotic lesion @ app. Pnt: 0
Soybean seedlings; 2.5 mM
  1st trifoliate leaf curl: 0
  Chlorotic lesion @ app. Pnt: 0
Soybean seedlings; 5.0 mM
  1st trifoliate leaf curl: 0
  Chlorotic lesion @ app. Pnt: 0
Soybean seedlings; 1, 2.5 and 5 mM
  Plant response phenotype, soybean: modest stem twisting and bending (epinasty)
[1]; 5 mM (high dose), 1-2 days post treatment
  Phenotype, Arabidopsis: modest petiole twisting (epinasty) and leaf curl

## O=C(O)CC[C@H](NC(=O)COc1ccc(Cl)cc1Cl)C(=O)O [2,4-D-Glu]
Soybean seeds
  Soybean seed germination and growth: seed germination and growth were normal
Soybean seedlings; 100 μM
  1st trifoliate leaf curl: 0
  Epinasty score: +/−
Soybean seedlings; 250 μM
  1st trifoliate leaf curl: 0
  Epinasty score: +/−
Soybean seedlings; 500 μM
  1st trifoliate leaf curl: 0
  Plant response phenotype, soybean: modest epinasty
Soybean seedlings; 100, 250 & 500 μM
  Plant response phenotype, soybean: distinctly lower level of severity
Soybean seedlings; lower concentration than 500 μM
  Plant response phenotype, soybean: no discernible auxinic responses

## O=C(O)CC[C@H](NC(=O)Cc1c[nH]c2ccccc12)C(=O)O [IAA-Glu]
Soybean seedlings; 1.0 mM
  1st trifoliate leaf curl: 0
  Chlorotic lesion @ app. Pnt: 0
  Epinasty score: 0
Soybean seedlings; 2.5 mM
  1st trifoliate leaf curl: 0
  Chlorotic lesion @ app. Pnt: 0
  Epinasty score: 0
Soybean seedlings; 5.0 mM
  1st trifoliate leaf curl: 0
  Chlorotic lesion @ app. Pnt: 0
  Epinasty score: 0
Soybean seedlings; 1, 2.5 and 5 mM
  Plant response phenotype, soybean: No discernable phenotype
[1]; [5]
  Phenotype, Arabidopsis: No discernable phenotype

## O=C(O)C[C@H](NC(=O)Cc1c[nH]c2ccccc12)C(=O)O [IAA-Asp]
Soybean seedlings; 1.0 mM
  1st trifoliate leaf curl: 0
  Chlorotic lesion @ app. Pnt: 0
  Epinasty score: 0
Soybean seedlings; 2.5 mM
  1st trifoliate leaf curl: 0
  Chlorotic lesion @ app. Pnt: 0
  Epinasty score: 0
Soybean seedlings; 5.0 mM
  1st trifoliate leaf curl: 0
  Chlorotic lesion @ app. Pnt: 0
  Epinasty score: 0
Soybean seedlings; 1, 2.5 and 5 mM
  Plant response phenotype, soybean: No discernable phenotype
[1]; [5]
  Phenotype, Arabidopsis: No discernable phenotype

## COc1c(Cl)ccc(Cl)c1C(=O)O [dicamba, 3,6-dichloro-2-methoxybenzoic acid free acid]
Soybean seeds
  Soybean seed germination and growth: seed germination was arrested
Soybean seedlings; 50 μM
  Chlorotic lesion @ app. Pnt: 0
Soybean seedlings; 100 μM
  Chlorotic lesion @ app. Pnt: 0
Soybean seedlings; 250 μM
  Chlorotic lesion @ app. Pnt: 0
Soybean seedlings; 50, 100 and 250 μM
  Plant response phenotype, soybean: epinasty at day 1 and leaf curling of 1st tri-foliate
[1]; 50, 100 and 250 μM
  Phenotype, Arabidopsis: petiole epinasty and leaf curling at day one

## O=C(O)C[C@H](NC(=O)COc1ccc(Cl)cc1Cl)C(=O)O [2,4-D-Asp]
Soybean seeds
  Soybean seed germination and growth: seed germination and growth were normal
Soybean seedlings; 100 μM
  1st trifoliate leaf curl: 0
Soybean seedlings; 250 μM
  1st trifoliate leaf curl: 0
Soybean seedlings; 500 μM
  1st trifoliate leaf curl: 0
Soybean seedlings; 100, 250 & 500 μM
  Plant response phenotype, soybean: auxinic response nearly equivalent to that of 2,4-D

## COc1c(Cl)ccc(Cl)c1C(=O)NC(CC(=O)O)C(=O)O (centres unmarked) [dicamba-Asp]
Soybean seeds
  Soybean seed germination and growth: seed germination and growth were normal
Soybean seedlings; 50 μM
  1st trifoliate leaf curl: 0
  Chlorotic lesion @ app. Pnt: 0
  Epinasty score: 0
Soybean seedlings; 100 μM
  1st trifoliate leaf curl: 0
  Chlorotic lesion @ app. Pnt: 0
  Epinasty score: 0
Soybean seedlings; 250 μM
  1st trifoliate leaf curl: 0
  Chlorotic lesion @ app. Pnt: 0
  Epinasty score: 0
Soybean seedlings; 50, 100 and 250 μM
  Plant response phenotype, soybean: phenotypes similar to that of negative control
[1]; 50, 100 and 250 μM
  Phenotype, Arabidopsis: No obvious phenotype

B1: OsGH3-12: GH3 protein, accession Q53P49 (protein, listed as Oryza sativa)
chain: MLEKEGKLIMSREDEEIMAWFERTTRDAADVQRETLRRILAENAGVEYLRELGLAGLTDAGSFRARVPVVTHADLDPYIQRVADGDASPVLTAKPVTAISLSSGTTQGKRKRLLFNDDLLRSSIRFFHASYAFTNRAFPVEDGRVLQFMYGSRHETTKGGLTATTVMTNLLRSEEFTASMAARSRPRLPSCSPSEVVFSPDFDESLYCHLLCGLLLAGEVRAVSASFAHSIVVALQALERVWRELCADIRRGAASPARVTTPAVRRAVAPILAAPNPALADALERRCAALGDWSGVIPALWPNARYVQATMTGSMEHYVKKLRHYAGGVPLVSGNYASSEGVIGINAEQHAPPESVVFTVLPDAAYFEFIPLKPPCTDAAADDDNPAAAGSSCYVDADDANPVGLTDVVVGEHYEVVMTTFTGLYRYRLGDVVKVAGFHHATPKLRFVCRRSLILSINVDKNSEHDLQLAVDSAAKILAGDGENHKQLEIADYTSHADTSSDPGHYVVFWELNGGGEEDGGGVLQRCCDEMDRAFGADAGYAQSRKTCAIGALELRVLRRGAFQEVLRHYVAGGSSAGQFKMPRCVAPSNAGVLRVLKDNTINIFFSTAYDYD
[2]; 2,4-D with Asp
  Detected auxin conjugates: 2,4-D-Asp: No
[2]; 2,4-D with Glu
  Detected auxin conjugates: 2,4-D-Glu: No
[3]; IAA with Asp
  Detected auxin conjugates: IAA-Asp: No
[3]; IAA with Glu
  Detected auxin conjugates: IAA-Glu: No
[4]; dicamba with Asp
  Detected auxin conjugates: Dicamba-Asp: No
[4]; dicamba with Glu
  Detected auxin conjugates: Dicamba-Glu: No
